Drawing on PubChem BioAssay (NCI), this text covers TGI and GI50 for 23 compounds.

Among the test systems are ACHN renal; MALME-3M melanoma; MOLT-4 leukemia; HT29 colon; CAKI-1 renal; RPMI-8226 leukemia; HCT-116 colon; SK-MEL-28 melanoma; HCT-15 colon.
What all share (assay): DTP human tumour cell line panel, 48 h

Structures are written as SMILES.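 Five compound concentrations were applied to cells in 96-well plates for 48 hours; endpoints were derived by simple linear interpolation of the resulting dose-response curve. Abbreviation: GI50, concentration required for 50% inhibition of growth. TGI: concentration producing complete growth inhibition.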

Regarding `O=C1CCCC[C@H]1[C@H]1CCC[C@@H]([C@H]2CCCCC2=O)C1=O`, the TGI in the assay on ACHN renal, with MALME-3M melanoma, in the assay on MOLT-4 leukemia, in the assay on HT29 colon, with CAKI-1 renal and with RPMI-8226 leukemia was more than 100 µM in each case. For the same compound, the concentration for total growth inhibition (TGI) in the assay on HCT-116 colon, with SK-MEL-28 melanoma and in the assay with HCT-15 colon was more than 100 µM each time.
As to `O=C1OC2CCCC[C@@H]2C2C[C@]34CCCCC3[C@@H](C(=O)O4)C12` (stereo partly specified), the total growth inhibition concentration (TGI) in the assay with ACHN renal, in the assay with MALME-3M melanoma, in the assay on MOLT-4 leukemia, in the assay with HT29 colon, with HCT-116 colon and in the assay with SK-MEL-28 melanoma was more than 100 µM in each case. Further, in the assay with HCT-15 colon, the TGI was more than 100 µM.
On to `CCN(CC)c1ccc(N=Nc2ccc(-c3nc4ccc[n+](C)c4s3)cc2)cc1`, for which the TGI is 26.3 µM in the assay with MALME-3M melanoma; 24.6 µM in the assay with MOLT-4 leukemia; 18.5 µM with HT29 colon; 40.3 µM in the assay with CAKI-1 renal; 25.7 µM in the assay on RPMI-8226 leukemia; 20.5 µM in the assay on HCT-116 colon. This compound also registered a TGI in the assay on HCT-15 colon of 32.1 µM.
Regarding `C=CC/C=C/C/C=C/CCCCCCCc1cccc(O)c1C(=O)O`, the total growth inhibition concentration (TGI) in the assay on ACHN renal, in the assay with MALME-3M melanoma, with MOLT-4 leukemia, in the assay on HT29 colon, in the assay on CAKI-1 renal and in the assay on RPMI-8226 leukemia was more than 100 µM each time. Also, the values for the total growth inhibition concentration (TGI) in the assay on HCT-116 colon, in the assay on SK-MEL-28 melanoma and in the assay on HCT-15 colon were more than 100 µM, 89.6 µM and more than 100 µM, respectively.
Take `O=c1c2cc(Br)cc(Br)c2nc(CCCl)n1CCO`: the TGI in the assay with ACHN renal, in the assay on MALME-3M melanoma, in the assay on MOLT-4 leukemia, with HT29 colon, with CAKI-1 renal and in the assay with RPMI-8226 leukemia was more than 100 µM each time. The TGI in the assay on HCT-116 colon and in the assay on SK-MEL-28 melanoma was more than 100 µM in each case.
On to `C/C(CC(=O)NCCc1ccccc1)=N\NC(=O)C[n+]1ccccc1`, for which the total growth inhibition concentration (TGI) in the assay with ACHN renal, in the assay with MALME-3M melanoma, in the assay on MOLT-4 leukemia, with HT29 colon, in the assay with RPMI-8226 leukemia and in the assay on HCT-116 colon was more than 100 µM throughout. The TGI in the assay with SK-MEL-28 melanoma and in the assay on HCT-15 colon was more than 100 µM throughout.
`O=C1/C(=C/c2cccc([N+](=O)[O-])c2)COc2ccc(Br)cc21`: the total growth inhibition concentration (TGI) was more than 100 µM with ACHN renal; more than 100 µM in the assay on MALME-3M melanoma; 96 µM with MOLT-4 leukemia; more than 100 µM with HT29 colon; 6.57 µM in the assay with RPMI-8226 leukemia; more than 100 µM with HCT-116 colon. This compound displayed a total growth inhibition concentration (TGI) in the assay with SK-MEL-28 melanoma of more than 100 µM.
For `CN(CCC#N)c1ccc(/C=C(\C#N)c2ccc(Br)cc2)cc1`, the GI50 with ACHN renal was more than 100 µM; with MALME-3M melanoma it was more than 100 µM; with HT29 colon it was 3.16 µM; in the assay on CAKI-1 renal, more than 100 µM; in the assay on SK-MEL-28 melanoma it was more than 100 µM; with HCT-15 colon, 2.9 µM. In addition, the concentration for total growth inhibition (TGI) with ACHN renal, in the assay with MALME-3M melanoma, in the assay with HT29 colon, in the assay with CAKI-1 renal, in the assay with SK-MEL-28 melanoma and in the assay with HCT-15 colon was more than 100 µM in each case.
For `NC(=O)NCc1c(C(N)=O)ncn1Cc1ccccc1`, the TGI in the assay on ACHN renal, in the assay with MOLT-4 leukemia, in the assay with HT29 colon, with CAKI-1 renal, with RPMI-8226 leukemia and with HCT-116 colon was more than 100 µM throughout. For the same compound, the TGI in the assay on SK-MEL-28 melanoma and with HCT-15 colon was more than 100 µM each time.
On to `CSC(C1c2ccccc2N(c2ccc(C)cc2)c2[nH]c(=O)n(C)c(=O)c21)S(=O)(=O)c1ccc(C)cc1` (stereo unspecified), for which the TGI in the assay with MALME-3M melanoma, with MOLT-4 leukemia, in the assay with HT29 colon, in the assay with CAKI-1 renal, in the assay on RPMI-8226 leukemia and with HCT-116 colon was more than 100 µM in each case. Moreover, the TGI in the assay with SK-MEL-28 melanoma is more than 100 µM.
As to `O=C1CCC(O)=C1N=Nc1ccccc1`, the concentration for total growth inhibition (TGI) with ACHN renal, in the assay with MALME-3M melanoma, in the assay with MOLT-4 leukemia, in the assay with HT29 colon, with CAKI-1 renal and in the assay on HCT-116 colon was more than 100 µM each time. For the same compound, the TGI in the assay with SK-MEL-28 melanoma and with HCT-15 colon was more than 100 µM each time.
In the case of `CN(C)c1cc[c]([Sn]([c]2ccc(N(C)C)cc2)([c]2ccc(N(C)C)cc2)[c]2ccc(N(C)C)cc2)cc1`, the GI50 is 14.5 µM with ACHN renal; 1.93 µM in the assay on MOLT-4 leukemia; 2.91 µM with HT29 colon; 5.13 µM with CAKI-1 renal; 1.55 µM in the assay on RPMI-8226 leukemia; 3.94 µM in the assay with HCT-116 colon. In the assay on HCT-15 colon, the GI50 was more than 100 µM. Also, the TGI with ACHN renal was found to be 34.2 µM; in the assay with MOLT-4 leukemia, 6.22 µM; in the assay with HT29 colon it was 12.7 µM; in the assay with CAKI-1 renal, 19.4 µM; in the assay on RPMI-8226 leukemia, 4.76 µM; in the assay on HCT-116 colon, 13.9 µM. This compound also displayed a total growth inhibition concentration (TGI) with HCT-15 colon of more than 100 µM.
For the compound `c1ccc(C2Nc3ccccc3C3OCCCC23)cc1` (stereo unspecified), the concentration for total growth inhibition (TGI) in the assay on ACHN renal was more than 100 µM; in the assay on MALME-3M melanoma, more than 100 µM; in the assay on MOLT-4 leukemia, more than 100 µM; with CAKI-1 renal, 42.3 µM; with RPMI-8226 leukemia it was 60.2 µM; in the assay on HCT-116 colon, 87.3 µM. Moreover, in the assay with HCT-15 colon, the concentration for total growth inhibition (TGI) is more than 100 µM.
Take `Cc1c(C(=O)/C=C/c2ccccc2)[n+](=O)c2ccccc2n1[O-]`: the TGI came out at 33.6 µM with ACHN renal; 33.6 µM with MALME-3M melanoma; 54.6 µM in the assay on MOLT-4 leukemia; 35.7 µM with HT29 colon; 45.7 µM in the assay with CAKI-1 renal; 45.9 µM in the assay with RPMI-8226 leukemia. The TGI in the assay on HCT-116 colon was 32.4 µM; with SK-MEL-28 melanoma, 31 µM.
For the compound `N#CC1CC2(C1)OCCS2` (stereo unspecified), the TGI in the assay on ACHN renal, with MOLT-4 leukemia, in the assay with HT29 colon, in the assay with CAKI-1 renal, in the assay on RPMI-8226 leukemia and with HCT-116 colon was more than 100 µM each time. Further, the TGI with SK-MEL-28 melanoma and in the assay with HCT-15 colon was more than 100 µM in each case.
Consider `Cn1c2ccccc2c(=O)c2ccc(Cl)cc21`, for which the concentration for total growth inhibition (TGI) in the assay on MALME-3M melanoma, with MOLT-4 leukemia, in the assay with HT29 colon, in the assay with RPMI-8226 leukemia, in the assay with HCT-116 colon and in the assay with SK-MEL-28 melanoma was more than 10 µM each time. The total growth inhibition concentration (TGI) in the assay with HCT-15 colon is more than 10 µM.
For the compound `ClCc1cccc(Cn2cnc3nc(Cl)nc(Cl)c32)c1`, the GI50 is 0.396 µM in the assay with ACHN renal; 6.15 µM in the assay on MALME-3M melanoma; 1.17 µM with MOLT-4 leukemia; 1.89 µM in the assay on CAKI-1 renal; 1.72 µM with RPMI-8226 leukemia; 0.285 µM with HCT-116 colon. Moreover, the GI50 with SK-MEL-28 melanoma was 0.503 µM; in the assay with HCT-15 colon, 0.955 µM. Further, the TGI was 0.837 µM in the assay with ACHN renal; 13 µM with MALME-3M melanoma; 2.7 µM in the assay on MOLT-4 leukemia; 3.4 µM in the assay with CAKI-1 renal; 4.15 µM in the assay on RPMI-8226 leukemia; 0.731 µM in the assay with HCT-116 colon. Also, the TGI with SK-MEL-28 melanoma amounted to 1.13 µM; in the assay with HCT-15 colon, 2.13 µM.
As to `S=C1OC2CCCC[C@H]2O1` (stereo partly specified), the TGI in the assay with ACHN renal, in the assay on MOLT-4 leukemia, with HT29 colon, with CAKI-1 renal, with RPMI-8226 leukemia and in the assay on HCT-116 colon was more than 100 µM throughout. The same compound registered a TGI in the assay with SK-MEL-28 melanoma of more than 100 µM.
Regarding `O=C1CC2CCCC23CC2(CCN13)OCCO2` (stereo unspecified), the TGI in the assay with ACHN renal, with MALME-3M melanoma, in the assay on MOLT-4 leukemia, with HT29 colon, in the assay on CAKI-1 renal and in the assay on RPMI-8226 leukemia was more than 100 µM in each case. Also, the TGI in the assay on HCT-116 colon and with SK-MEL-28 melanoma was more than 100 µM in each case.
`O=C1CC2c3ccccc3CCC2c2ccccc21` (stereo unspecified): the total growth inhibition concentration (TGI) is more than 100 µM in the assay with ACHN renal; more than 100 µM with MOLT-4 leukemia; 30.6 µM with HT29 colon; more than 100 µM in the assay on CAKI-1 renal; more than 100 µM in the assay on RPMI-8226 leukemia; 42.1 µM with HCT-116 colon. Moreover, the TGI is more than 100 µM in the assay with SK-MEL-28 melanoma and 50.1 µM in the assay with HCT-15 colon.
Take `O=C(c1ccccc1)C1OC12C(=O)Nc1ccccc12` (stereo unspecified): the TGI with ACHN renal was more than 100 µM; with MALME-3M melanoma it was more than 100 µM; with MOLT-4 leukemia, 34.1 µM; in the assay on HT29 colon it was 37.9 µM; in the assay on CAKI-1 renal, 46 µM; in the assay with RPMI-8226 leukemia, 84.9 µM. The TGI with HCT-116 colon and in the assay with SK-MEL-28 melanoma was more than 100 µM each time.
As to `COc1ccc(OC)c2c(C(=O)O)c(Cc3ccccc3)ccc12`, the concentration for total growth inhibition (TGI) in the assay on ACHN renal, in the assay with MALME-3M melanoma, in the assay with MOLT-4 leukemia, in the assay on HT29 colon, in the assay with CAKI-1 renal and in the assay on HCT-116 colon was more than 100 µM in each case. Besides, the TGI with SK-MEL-28 melanoma and in the assay with HCT-15 colon was more than 100 µM in each case.
As for `CCOC(=O)NC(=O)c1cn(CCCOC(=O)CCCCCCCCCCC(=O)OCCCn2cc(C(=O)NC(=O)OCC)c(=O)[nH]c2=O)c(=O)[nH]c1=O`, the concentration for total growth inhibition (TGI) in the assay on ACHN renal, with MALME-3M melanoma, in the assay with MOLT-4 leukemia, in the assay on HT29 colon, with RPMI-8226 leukemia and in the assay on HCT-116 colon was more than 100 µM in each case. In the assay on SK-MEL-28 melanoma, this compound registered a TGI of more than 100 µM.

For orientation: TGI means the concentration giving total growth inhibition. A higher TGI goes with less potent growth arrest. The term GI50 denotes the concentration that inhibits growth by half.
